In paper PMC9050848, “Carbamoyl-N-aryl-imine-urea: a new framework to obtain a putative leishmanicidal drug-candidate” (RSC Advances, 2020):
Read-outs that look alike come from different tables or passages of the source.

Key:
[1] = test system: J774.A1 cell lines (macrophages); assay: Cytotoxicity against J774.A1 macrophages, MTT assay; format: cell-based, murine (BALB/c); conditions: Mus musculus, read-out: IC50 (concentration required to give 50% death of cells)
Method: Initially the cytotoxic profile of compounds 9a–e and 10a–e against J774.A1 cell lines (i.e., BALB/c macrophage cell lines) was investigated. Therefore, these cells were exposed to different concentrations (0.1–100 μM) of compounds 9a–e and 10a–e and the cytotoxic effect was measured after 48 h of drug incubation, by using MTT-based assay. The cytotoxicity was expressed as IC50 values (that means the concentration of a drug that kills half of the tested cells in culture). As depicted in Table 1, most compounds have shown low cytotoxic activity with IC50 > 100 μM.
These adherent-phenotype macrophage lines were cultured in Dulbecco's Modified Eagle's medium (DMEM, Sigma) supplemented with 10% FBS at 37 °C with 95% humidity and 5% CO2.
To evaluate the cytotoxic activity against the J774.A1 cell line, the host cells were plated in 96-well cell culture plate (flat bottom, clear, Corning) at 2 × 10^5 cells per well in complete culture medium 10% FBS at 37 °C. After 1 h wells were washed with warm Hank's Balanced Salt solution (HBSS) to remove non-adherent cells, leaving approximately 10^5 adherent macrophages. All cultures were done in DMEM complete supplemented with 10% FBS. The compounds and pentamidine were added at serial concentrations (0.1–100 μM). The cells were also cultured with medium free from compounds or vehicle (basal growth control) or in media with DMSO 0.1% (vehicle control). Positive control (dead cells) was obtained by cellular lysis with 1% of Triton 100× in DMEM complete (because it is a detergent in this concentration, Triton 100× destabilizes the cell membrane of macrophages, causing cell death). The cytotoxicity was evaluated by the MTT assay.[31] This assay consists of indirectly measuring cell viability through the mitochondrial enzymatic activity of macrophages. Viable cells are capable of reducing MTT to formazan. For this, after the incubation of plate for 48 h, 100 μL of MTT solution (0.5 mg mL^−1, in DMEM medium) was added per well, and the plate was incubated for 1 h. Then, the supernatant of each well was retired and was added 150 μL of DMSO. The absorbance was determined at 570 nm in a microplate reader. The cell viability of the cultures treated with the compounds was compared to the death pattern obtained in the control cultures. In the positive control, the cell death was confirmed when the optical density was equal to zero, confirming that the cells were not viable. Data obtained from experiments were expressed as the mean ± standard error of the mean (mean ± S.E.M.) and statistical differences between the treated and the vehicle groups of experiments were evaluated by ANOVA and Dunnett hoc tests.

[2] = test system: L. amazonensis intracellular amastigotes; assay: Leishmanicidal activity against intracellular amastigote forms of L. amazonensis in J774.A1 macrophages; format: cell-based; conditions: for Effect on the number of intracellular amastigotes: L. amazonensis, screening concentration 30 μM; for IC50 / Emax: Leishmania amazonensis; for IC50: read-out: IC50 (concentration required to give 50% death of parasites); for Emax: maximum toxicity vs 0.1% DMSO group, read-out: Maximum effect (% ± S.E.M.)
Method: Considering that L. amazonensis is one of the causative species of cutaneous leishmaniasis in Brazil,[20] we have investigated the leishmanicidal effect of compounds 9a–e and 10a–e against L. amazonensis amastigotes forms. Initially, all compounds were evaluated at 30 μM. […] Then, they were selected to determine their IC50 value for intracellular amastigote forms of L. amazonensis.
(§1) Promastigotes of L. amazonensis (MHOM/BR/77/LTB0016) were obtained from Dr Eduardo Caio Torres dos Santos at Oswaldo Cruz Institute – Fiocruz. Promastigotes of L. braziliensis (MHOM/BR/01/BA788) were obtained from Dr Valéria de Matos Borges at Gonçalo Moniz Research Center – Fiocruz. The parasites were maintained in vitro in Schneider's medium, supplemented with 10% FBS and 2% human urine at 27 °C in BOD incubator.
(§2) Initially, compounds 9a–e and 10a–e were evaluated at screening concentration of 30 μM against L. amazonensis, using DMSO 0.03% as vehicle control, since this was the DMSO concentration (vehicle) remaining in each well with the tested compounds. […] Vehicle control used was DMSO 0.1%, since this was the concentration of DMSO (vehicle) existing in each well with the tested substances in the highest concentration used.
(§3) To assess the activity of the test derivatives against the amastigote stage of L. amazonensis and L. braziliensis the model of infection in coverglass was realized.[31] The murine macrophages (J774.A1 cell line) were prepared in 24-well cell culture plate (flat bottom, clear, Corning) at 2 × 10^5 adherent cells per well, infected with 2 × 10^6 promastigotes in glass coverslips placed inside 1 mL medium culture. The cultures were cultured or not with the test derivatives or reference drugs, and kept for 24 h at 37 °C, 5% CO2. After 24 h of incubation, the coverslips were washed, stained with Giemsa–May–Grünwald, and intracellular amastigotes were counted in 100 macrophages, using an optical microscope, on the objective of 100×. Thus, during the counting of 100 macrophages, the amount of amastigotes present within these defence cells was also determined. Data obtained from in vitro experiments were expressed as the mean ± S.E.M. of duplicate cultures of representative assays. Statistical differences between the treated and the control groups were evaluated by ANOVA and Dunnett hoc tests. Differences with a p value < 0.05 or lower were considered significant.

[3] = test system: L. braziliensis intracellular amastigotes; assay: Leishmanicidal activity against intracellular amastigote forms of L. braziliensis in J774.A1 macrophages; format: cell-based; conditions: Leishmania braziliensis; for IC50: read-out: IC50 (concentration required to give 50% death of parasites); for Emax: maximum toxicity vs 0.1% DMSO group, read-out: Maximum effect (% ± S.E.M.)
Description: Further, the leishmanicidal activity against intracellular amastigotes forms of L. braziliensis were also investigated (Table 2).
as §1, §2, §3

L. amazonensis = assay: Murine model of cutaneous leishmaniasis induced by L. amazonensis (efficacy); format: in vivo, BALB/c mice; conditions: 30 μmol per kg per day × 28 days
Method: So, BALB/c mice infected with L. amazonensis were treated during 28 days with compound 10e (30 μmol per kg per day, i.p.) or with the standards miltefosine (30 μmol per kg per day, p.o.) and meglumine antimoniate (30 μmol per kg per day, i.p.).
(§4) This study (protocol number 2013.02) was approved by the Ethics Committee for Animal Experimentation of the Federal University of Alagoas (Brazil). All animals received humane care in compliance with the ‘Principles of laboratory animal care’ formulated by the National Society for Medical Research and the ‘Guide for the care and use of laboratory animals’ prepared by the National Academy of Sciences (Washington, DC). Then, 1 × 10^5 stationary promastigotes (5 days of culture in Schneider's medium) of L. amazonensis were inoculated subcutaneously into the right ear dermis of 6 week-old female BALB/c mice weighing ca. 20 g. and later treated with 10e (i.p.), miltefosine (p.o.) or meglumine antimoniate (i.p.) at 30 μmol kg^−1 × 28 days. The vehicle to solubilize 10e (LASSBio-1736) and standard drugs was Tween 20 (50 μL) and sterile water for injection, which was also administrated by i.p. route in two controls groups (non-infected control and infected control). The lesion size was measured using a paquimeter.[32] The parasite loads of infected ears and draining lymph nodes were determined using a quantitative limiting-dilution assay.[33] Toxicity was also evaluated due to alterations on spleen weight and by biochemistry dosages in plasma, performed according to the manufacturer's instructions (Doles, BRA). Data obtained from experiments were expressed as the mean ± S.E.M. and statistical differences between the treated and the vehicle groups of experiments were evaluated by ANOVA and Dunnett hoc tests.

[4] = Toxicity in treated infected mice (survival, spleen weight, serum biochemistry); format: in vivo; conditions: infected BALB/c mice, 30 μmol kg−1 daily for 28 days, n = 5
Method: The survival of BALB/c mice infected with L. amazonensis untreated and treated during 28 days with the daily dose of 30 μmol kg^−1 with meglumine antimoniate, miltefosine and 10e (LASSBio-1736) was analyzed. Animal mortality was not observed for the groups treated with 10e and miltefosine, while 20% of death was identified from the 25th day of treatment with meglumine antimoniate (Fig. 11). After the end of treatment, the animal's toxicity was investigated looking for any alterations on spleen weight and on alanine aminotransferase (ALT), aspartate aminotransferase (AST), creatinine (CREA) and urea serum levels.
as §4

[5] = J774.A1 macrophages, 48 h incubation, MTT, 0.1–100 μM
[6] = L. amazonensis amastigotes, ratio of IC50 values
[7] = J774.A1, L. amazonensis intracellular amastigotes, 24 h
[8] = J774.A1, L. amazonensis intracellular amastigotes
[9] = J774.A1, L. braziliensis intracellular amastigotes, 24 h
[10] = J774.A1, L. braziliensis intracellular amastigotes

Compound	IC50 [1, 5]	Effect on the number of intracellular amastigotes [2]	IC50 [2, 7]	Emax [2, 8]	IC50 [3, 9]	Emax [3, 10]	further results
O=C(N/N=C/c1ccc([N+](=O)[O-])o1)NNC(=O)c1ccc(Cl)cc1 [LASSBio-1491 (9a), 4-chloro-phenylcarbamoyl-N-5-nitrofuranimine-urea]	> 100 µM	–	–	–	–	–	–
O=C(N/N=C/c1ccc([N+](=O)[O-])o1)NNC(=O)c1ccc(Cl)cc1Cl [LASSBio-1703 (10a), 2,4-dichloro-phenylcarbamoyl-N-5-nitrofuranimine-urea]	> 100 µM	–	–	–	–	–	–
O=C(N/N=C/c1ccccc1O)NNC(=O)c1ccc(Cl)cc1 [LASSBio-1704 (9b), 4-chloro-phenylcarbamoyl-N-2-hydroxyphenylimine-urea]	> 100 µM	decreased the number of intracellular amastigotes	85.3 ± 5 µM	55.6 ± 1.4%	> 100 µM	48.1 ± 4.5%	Times less potent than miltefosine [2, 6]: ~4.0 times; Times less potent than pentamidine [2, 6]: about 2.5 times
O=C(N/N=C/c1ccccc1O)NNC(=O)c1ccc(Cl)cc1Cl [LASSBio-1705 (10b), 2,4-dichloro-phenylcarbamoyl-N-2-hydroxyphenylimine-urea]	78.1 ± 4.5 µM	–	–	–	–	–	–
O=C(N/N=C/c1ccc(O)cc1)NNC(=O)c1ccc(Cl)cc1 [LASSBio-1706 (9d), 4-chloro-phenylcarbamoyl-N-4-hydroxyphenylimine-urea]	86.2 ± 8.7 µM	decreased the number of intracellular amastigotes	> 100 µM	–	3.6 ± 0.6 µM	70.4 ± 1.9%	–
O=C(N/N=C/c1ccc(O)cc1)NNC(=O)c1ccc(Cl)cc1Cl [LASSBio-1707 (10d), 2,4-dichloro-phenylcarbamoyl-N-4-hydroxyphenylimine-urea]	> 100 µM	decreased the number of intracellular amastigotes	> 100 µM	44.4 ± 0.2%	> 100 µM	–	–
O=C(N/N=C/c1cccc(O)c1)NNC(=O)c1ccc(Cl)cc1Cl [LASSBio-1708 (10c), 2,4-dichloro-phenylcarbamoyl-N-3-hydroxyphenylimine-urea]	> 100 µM	decreased the number of intracellular amastigotes	> 100 µM	31 ± 1.7%	> 100 µM	–	–
O=C(N/N=C/c1cccc(O)c1)NNC(=O)c1ccc(Cl)cc1 [LASSBio-1709 (9c), 4-chloro-phenylcarbamoyl-N-3-hydroxyphenylimine-urea]	85.2 ± 2.3 µM	–	–	–	–	–	–
O=C(N/N=C/c1ccc(C(F)(F)F)cc1)NNC(=O)c1ccc(Cl)cc1 [LASSBio-1737 (9e)]	> 100 µM	–	–	–	–	–	–
CCCCCCCCCCCCCCCCOP(=O)([O-])OCC[N+](C)(C)C [Miltefosine, reference compound]	–	–	–	58.1 ± 4.9%	–	84 ± 1.5%	IC50 ([1]; J774.A1, 48 h): > 100 µM; Appearance of lesions on the first day after end of treatment (photographs) (L. amazonensis): complete healing of the nodules and ulcers; Lesion sizes of infected ear (L. amazonensis; 10e and meglumine antimoniate i.p., miltefosine p.o.): reduced the lesion sizes of infected ear; Parasite load in infected ear (L. amazonensis; limiting-dilution assay): decreased parasite load in infected ear; Animal mortality [4]: not observed; IC50 ([2]; J774.A1, 24 h): 22 ± 1.8 µM; IC50 ([3]; J774.A1, 24 h): 32.1 ± 1.1 µM
N=C(N)c1ccc(OCCCCCOc2ccc(C(=N)N)cc2)cc1 [Pentamidine, reference compound]	35.5 ± 3.4 µM	–	32.8 ± 4.6 µM	59.1 ± 5.6%	78.4 ± 4.7 µM	61.7 ± 2.2%	–
meglumine antimoniate [reference compound]	–	–	–	–	–	–	Appearance of lesions on the first day after end of treatment (photographs) (L. amazonensis): the lesions showed an intense swelling and ulcerated; Animal mortality [4]: 20%
